In one series the target is T1, HIV-integrase (Human immunodeficiency virus type 1 group M subtype B, UniProt P04585).
T1 construct: 0.26 ng of recombinant integrase was incubated with the beads
In words: HIV-integrase inhibition activity (SPA bead strand-transfer assay). The series is classed as biochemical. The conditions noted are these: 50 μM compound; recombinant integrase. As to the method: For each reaction, 5 pmole of biotin labled substrate DNA was bound to 100 ug of Streptavidin coated PVT SPA beads (Amersham Pharmacia Biotech). 0.26 ng of recombinant integrase was incubated with the beads for 90 min at 37° C. Unbound enzyme was removed by washing the complex followed by addition of inhibitors and 0.1 fmol of P33 labeled target DNA. Reaction was stopped by adding EDTA to a final concentration of 10 mM. Samples were counted in TopCountNXT (Packard) and the CPM was used as a measure of integration. Reaction condition was as described in A. Engelman and R. Craigie, J. Virol. 69, 5908-5911 (1995). The sequences of substrate and target DNA were described in Nucleic Acid Research 22, 1121-1122 (1994). Compounds of this invention tested in this assay have IC50's of approximately 0.01 to 50 μM

Series [1] has as its system single cycle, recombinant HIV virus expressing Renella luciferase. In words: Inhibition of HIV replication (single cycle recombinant virus, luciferase readout). The following applies: Human immunodeficiency virus 1, 120 h, read-out: % Inhibition @ 1.6 uM. The series is classed as cell-based. As to the method:
Cell culture assays were preformed using a single cycle, recombinant HIV virus expressing Renella luciferase. Anti-viral activity was evaluated by measuring the production of luciferase in the infected cells 5 days post-infection. Susceptibility of the virus to compounds was determined by incubation in the presence of the serially-diluted compound. The 50% effective concentration (EC50) was calculated by using the exponential form of the median effect equation where (Fa)=1/[1+(ED50/drug conc.)^m]. Compounds of this invention tested in this assay have EC50's of approximately 0.02 to 50 μM.

For the molecule `O=C(O)/C(O)=C/C(=O)N(Cc1ccccc1)OCc1ccccc1` [Compound 2, 3-(Benzyl-benzyloxy-carbamoyl)-2-hydroxy-acrylic acid], the inhibition (as a rule, the percentage by which the read-out fell short of the control) at 50 µM on HIV-integrase was 99.9%. Take `CCON(Cc1ccc(F)cc1)C(=O)/C=C(\O)C(=O)O` [Compound 12, 3-[Ethoxy-(4-fluoro-benzyl)-carbamoyl]-2-hydroxy-acrylic acid]: the melting point (as a rule, the temperature, or range, at which the solid turns liquid) is 120 to 121 °C (dec.). For the same molecule, at HIV-integrase, the inhibition at 50 µM was 99.9%. The corresponding values for `CON(CCc1ccc(F)cc1)C(=O)/C=C(\O)C(=O)O` [Compound 9, 3-{[2-(4-Fluoro-phenyl)-ethyl]-methoxy-carbamoyl}-2-hydroxy-acrylic acid] are 107 to 108 °C (dec.) and 99.9%. The matching figures for `CON(Cc1ccc(C#N)cc1)C(=O)/C=C(\O)C(=O)O` [Compound 21, 3-[(4-Cyano-benzyl)-methoxy-carbamoyl]-2-hydroxy-acrylic acid]: 135 to 137 °C (dec.) and 99.9%.

`CCCCN(Cc1ccccc1)C(=O)CON(Cc1ccc(F)cc1)C(=O)/C=C(\O)C(=O)O` [Compound 72]: the inhibition at 50 µM on HIV-integrase is > 99%. Turning to `O=C(O)/C(O)=C/C(=O)N(Cc1ccc(F)cc1)OCC(=O)N(C1CCCCC1)C1CCCCC1` [Compound 76], the inhibition at 50 µM on HIV-integrase is > 99%. The same measure, in the same setting: then `CC(NC(=O)CON(Cc1ccc(F)cc1)C(=O)/C=C(\O)C(=O)O)c1ccccc1` (centres unmarked) [Compound 64], with > 99%; and `CC(NC(=O)CON(Cc1ccc(F)cc1)C(=O)/C=C(\O)C(=O)O)c1ccc(F)cc1` (centres unmarked) [Compound 70], with > 99%. For `CON(Cc1ccc(F)c(Br)c1)C(=O)/C=C(\O)C(=O)O` [Compound 14, 3-[(3-Bromo-4-fluoro-benzyl)-methoxy-carbamoyl]-2-hydroxy-acrylic acid], the melting point lay within 140 to 141 °C. Further, on HIV-integrase, the inhibition at 50 µM came to 99.9%.

The molecule `CN(C)C(=O)CON(Cc1ccc(F)cc1)C(=O)/C=C(\O)C(=O)O` [Compound 22, 3-[Dimethylcarbamoylmethoxy-(4-fluoro-benzyl)-carbamoyl]-2-hydroxy-acrylic acid] returned a melting point of 118 to 120 °C. For the same molecule, the inhibition at 50 µM at HIV-integrase came out at 99.9%. For the molecule `CC(C)CNC(=O)CON(Cc1ccc(F)cc1)C(=O)/C=C(\O)C(=O)O` [Compound 79], the inhibition at 50 µM at HIV-integrase was > 99%. For `CON(Cc1ccc(F)c(Cl)c1)C(=O)/C=C1\OC(C)(C)OC1=O` [Compound 5-B, N-(3-Chloro-4-fluoro-benzyl)-2-(2,2-dimethyl-5-oxo-[1,3]dioxolan-4-ylidene)-N-methoxy-acetamide], the melting point fell in the range of 110 to 111 °C. For the same molecule, in series [1], the inhibition at 1.6 µM came out at 94%.

As to `CN(CCCN1c2ccccc2CCc2ccccc21)C(=O)CON(Cc1ccc(F)cc1)C(=O)/C=C(\O)C(=O)O` [Compound 63], the inhibition at 50 µM on HIV-integrase is > 99%. The same measure, in the same setting: then `CC(=O)N1CCCN(C(=O)CON(Cc2ccc(F)cc2)C(=O)/C=C(\O)C(=O)O)CC1` [Compound 77], with > 99%; and `O=C(O)/C(O)=C/C(=O)N(Cc1ccc(Cl)c(Cl)c1)OCc1ccccc1` [Compound 6, 3-[Benzyloxy-(3,4-dichloro-benzyl)-carbamoyl]-2-hydroxy-acrylic acid], with 99.9%; and `O=C(O)/C(O)=C/C(=O)N(Cc1ccc(F)cc1)OCC(=O)N1CCOCC1` [Compound 62], with > 99%. On the same count and under the same terms, the same measure for `CON(Cc1ccccc1)C(=O)/C=C(\O)C(=O)O` [Compound 1, 3-(Benzyl-methoxy-carbamoyl)-2-hydroxy-acrylic acid]: 99%. For `CON(Cc1ccc(NC(C)=O)cc1)C(=O)/C=C(\O)C(=O)O` [Compound 23, 3-[(4-Acetylamino-benzyl)-methoxy-carbamoyl]-2-hydroxy-acrylic acid], the melting point was 155 °C (dec.). For the same molecule, at HIV-integrase, the inhibition at 50 µM amounted to 65%. For `O=C(CON(Cc1ccc(F)cc1)C(=O)/C=C(\O)C(=O)O)NCc1ccc(F)cc1` [Compound 65], the inhibition at 50 µM on HIV-integrase was > 99%. Take `COC(=O)c1ccc(CN(OC)C(=O)C=C(O)C(=O)O)cc1` [Compound 18, 4-{[(3-Carboxy-3-hydroxy-acryloyl)-methoxy-amino]-methyl}-benzoic acid methyl ester]: the melting point lay in the range of 110 to 111 °C. Further, the inhibition at 50 µM on HIV-integrase is 96%. `CON(Cc1ccccc1OC(C)C)C(=O)/C=C(\O)C(=O)O` [Compound 31, 2-Hydroxy-3-[(2-isopropoxy-benzyl)-methoxy-carbamoyl]-acrylic acid]: the inhibition at 1.6 µM in series [1] was 47%. `O=C(O)CON(Cc1ccc(F)cc1)C(=O)/C=C(\O)C(=O)O` [Compound 24, 3-[Carboxymethoxy-(4-fluoro-benzyl)-carbamoyl]-2-hydroxy-acrylic acid] displayed a melting point of 135 to 138 °C. Also, the inhibition at 50 µM at HIV-integrase came to 99.9%. Turning to `CCNC(=O)CON(Cc1ccc(F)cc1)C(=O)/C=C(\O)C(=O)O` [Compound 78], the inhibition at 50 µM at HIV-integrase is > 99%.

On to `CCCCCCN(CCCCCC)C(=O)CON(Cc1ccc(F)cc1)C(=O)/C=C(\O)C(=O)O` [Compound 75], for which the inhibition at 50 µM on HIV-integrase is > 99%. `CON(Cc1ccc(F)cc1F)C(=O)/C=C(\O)C(=O)O` [Compound 17, 3-[(2,4-Difluoro-benzyl)-methoxy-carbamoyl]-2-hydroxy-acrylic acid] gave a melting point of 131 to 132 °C. Besides, the inhibition at 50 µM at HIV-integrase turned out to be 99.9%. `CON(Cc1ccc(F)c(F)c1)C(=O)/C=C(\O)C(=O)O` [Compound 11, 3-[(3,4-Difluoro-benzyl)-methoxy-carbamoyl]-2-hydroxy-acrylic acid] had a melting point of 127 to 129 °C. In addition, the inhibition at 50 µM on HIV-integrase came out at 99.9%. The matching figures for `COc1ccc(CN(OC)C(=O)/C=C(\O)C(=O)O)cc1` [Compound 16, 2-Hydroxy-3-[methoxy-(4-methoxy-benzyl)-carbamoyl]-acrylic acid]: 83 to 86 °C and 99%. Consider `CC(C)CN(CC(C)C)C(=O)CON(Cc1ccc(F)cc1)C(=O)/C=C(\O)C(=O)O` [Compound 74], for which the inhibition at 50 µM on HIV-integrase is > 99%. For `CC(C)(C)OC(=O)CON(Cc1ccc(F)cc1)C(=O)/C=C(\O)C(=O)O` [Compound 20, 3-[tert-Butoxycarbonylmethoxy-(4-fluoro-benzyl)-carbamoyl]-2-hydroxy-acrylic acid], the melting point is 73 °C (dec.). The inhibition at 50 µM at HIV-integrase worked out at 99.9%. Turning to `CON(Cc1cccc(F)c1)C(=O)/C=C(\O)C(=O)O` [Compound 7, 3[(3-Fluoro-benzyl)-methoxy-carbamoyl]-2-hydroxy-acrylic acid], at HIV-integrase, the inhibition at 50 µM came to 99.9%. The same measure, in the same setting: then `CON(Cc1ccccc1F)C(=O)/C=C(\O)C(=O)O` [Compound 8, 3-[(2-Fluoro-benzyl)-methoxy-carbamoyl]-2-hydroxy-acrylic acid], with 99.9%; and `COc1ccc(CNC(=O)CON(Cc2ccc(F)cc2)C(=O)/C=C(\O)C(=O)O)cc1` [Compound 67], with > 99%. Consider `Cc1ccc(CNC(=O)CON(Cc2ccc(F)cc2)C(=O)/C=C(\O)C(=O)O)cc1` [Compound 68], for which, on HIV-integrase, the inhibition at 50 µM is > 99%. `O=C(CON(Cc1ccc(F)cc1)C(=O)/C=C(\O)C(=O)O)NCc1ccc(C(F)(F)F)cc1` [Compound 69]: at HIV-integrase, the inhibition at 50 µM was > 99%.

Take `CON(Cc1ccc(Cl)cc1)C(=O)/C=C(\O)C(=O)O` [Compound 10, 3-[(4-Chloro-benzyl)-methoxy-carbamoyl]-2-hydroxy-acrylic acid]: the inhibition at 50 µM on HIV-integrase came out at 99.9%. As to `CON(Cc1ccc(C(=O)O)cc1)C(=O)/C=C(\O)C(=O)O`, the melting point fell in the range of 123 to 125 °C. Turning to `CN(CCCC(c1ccc(Cl)cc1)c1ccc(Cl)cc1)C(=O)CON(Cc1ccc(F)cc1)C(=O)/C=C(\O)C(=O)O` [Compound 71], the inhibition at 50 µM on HIV-integrase is > 99%. Turning to `CCCN(CC1CC1)C(=O)CON(Cc1ccc(F)cc1)C(=O)/C=C(\O)C(=O)O` [Compound 73], the inhibition at 50 µM on HIV-integrase is > 99%.

For the molecule `CON(Cc1ccc(F)c(C#N)c1)C(=O)/C=C(\O)C(=O)O` [Compound 19, 3-[(3-Cyano-4-fluoro-benzyl)-methoxy-carbamoyl]-2-hydroxy-acrylic acid], the melting point was 144 to 151 °C (dec.). Also, the inhibition at 50 µM on HIV-integrase was found to be 99.9%. For the molecule `O=C(CON(Cc1ccc(F)cc1)C(=O)/C=C(\O)C(=O)O)NCc1ccc(Cl)cc1` [Compound 66], the inhibition at 50 µM at HIV-integrase is > 99%.

`CC(C)CON(Cc1ccc(F)cc1)C(=O)/C=C(\O)C(=O)O` [Compound 13, 3-[(4-Fluoro-benzyl)-isobutoxy-carbamoyl]-2-hydroxy-acrylic acid]: the melting point was in the range of 100 to 101 °C. In addition, the inhibition at 50 µM on HIV-integrase was found to be 99.9%. `CON(Cc1ccc(F)c(Br)c1)C(=O)/C=C1\OC(C)(C)OC1=O` gave a melting point of 117 to 119 °C. On the same count and under the same terms, then `COC(=O)c1ccc(CN(OC)C(=O)/C=C2\OC(C)(C)OC2=O)cc1`, with 120 °C; and `CON(CCc1ccc(F)cc1)C(=O)/C=C1\OC(C)(C)OC1=O`, with 106 to 107 °C.

The values above are taken from patent US6777440B2, “HIV integrase inhibitors” (Bristol-Myers Squibb Company, priority 2001, dated 2004).
